Experimental data published in US20250296959A1, “B7-H3 TARGETING PEPTIDES AND CONSTRUCTS THEREOF” (Mariana Oncology Inc., priority 2024, published 2025).
Starred links: 1 amine or outer side, 2 acyl side, 3 side chain; linkers in the order of their positions; H or OH if unused. Positions of bridges follow the written chain, without caps; N, C: chain ends. Non-standard residues stand in square brackets, D forms with d. Residues, ends and D or L forms follow the SMILES beside them. Groups on a side chain read outwards from the residue. *: point of attachment. Ala(piperidin-4-yl) = O=C([C@H](CC1CCN([*:3])CC1)N[*:1])[*:2]; DOTA = O=C(O)CN1CCN(CC(=O)O)CCN(CC(=O)*)CCN(CC(=O)O)CC1; Phe(4-NHCONH2) = NC(=O)Nc1ccc(C[C@H](N)C(=O)O)cc1; Trp(5-F) = N[C@@H](Cc1c[nH]c2ccc(F)cc12)C(=O)O; X1 = C[C@@H](c1ccccc1)[C@H](N[*:1])C(=O)[*:2]; PEG8 = NCCOCCOCCOCCOCCOCCOCCOCCOCCC(=O)O; γGlu = O=C(O)[C@H](CCC(=O)[*:2])N[*:1]; Ala(4-THP) = N[C@@H](CC1CCOCC1)C(=O)O; Phe(2-F) = N[C@@H](Cc1ccccc1F)C(=O)O; AEF = NCCOc1ccc(C[C@H](N)C(=O)O)cc1; Val(3-OH) = CC(C)(O)[C@H](N)C(=O)O; 4Pal = N[C@@H](Cc1ccncc1)C(=O)O; pGlu = O=C1CC[C@@H](C(=O)O)N1; PEG4 = NCCOCCOCCOCCOCCC(=O)O; Tle = CC(C)(C)[C@H](N)C(=O)O; hLeu = CC(C)CC[C@H](N)C(=O)O; Nle = CCCC[C@H](N)C(=O)O; Dab = NCC[C@H](N)C(=O)O; Abu = CC[C@H](N)C(=O)O; Sar = CNCC(=O)O

Each molecule was assayed against T1, human 4lg B7-H3 (Homo sapiens, UniProt Q5ZPR3) (assay: Affinity determination by surface plasmon resonance (SPR) to 4Ig B7-H3). Conditions: SPR KD—25° C., 4Ig B7-H3; 25° C. flow cell temperature.
T1 sequence (Q5ZPR3 29-534): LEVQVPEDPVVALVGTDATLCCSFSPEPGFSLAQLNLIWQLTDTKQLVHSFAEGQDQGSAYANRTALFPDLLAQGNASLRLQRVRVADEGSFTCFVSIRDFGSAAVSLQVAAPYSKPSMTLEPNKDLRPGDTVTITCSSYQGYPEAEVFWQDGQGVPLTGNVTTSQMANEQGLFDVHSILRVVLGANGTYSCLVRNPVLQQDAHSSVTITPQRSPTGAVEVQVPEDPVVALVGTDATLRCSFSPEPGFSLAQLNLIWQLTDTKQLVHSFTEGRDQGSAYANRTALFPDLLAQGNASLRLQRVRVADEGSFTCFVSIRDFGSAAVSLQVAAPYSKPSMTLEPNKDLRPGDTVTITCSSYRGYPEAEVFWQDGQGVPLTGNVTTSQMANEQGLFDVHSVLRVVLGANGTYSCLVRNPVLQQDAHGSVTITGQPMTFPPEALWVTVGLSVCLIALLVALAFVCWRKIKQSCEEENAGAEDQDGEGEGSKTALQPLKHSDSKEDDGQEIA

Kd [nM]	SMILES
< 1	CC(=O)N[C@@H](CCC(C)C)C(=O)N[C@@H](Cc1ccc(O)cc1)C(=O)N[C@H]1CSSC[C@@H](C(=O)N[C@@H](Cc2c[nH]c3ccccc23)C(=O)N[C@@H](Cc2ccccc2)C(=O)N[C@H](C(=O)N[C@H](CCCCNC(=O)CN2CCN(CC(=O)O)CCN(CC(=O)O)CCN(CC(=O)O)CC2)C(N)=O)[C@@H](C)O)NC(=O)[C@H](Cc2ccc(O)cc2)NC(=O)[C@H](C(C)C)NC(=O)[C@H](CC(=O)O)NC(=O)[C@H](Cc2ccncc2)NC(=O)[C@H](CCCCN)NC(=O)CNC(=O)[C@H](C(C)C)NC1=O [compound 155, Ac-hLeu-Y-C-V-G-K-4PyA-D-V-Y-C-W-F-Thr-dLys(DOTA)-CONH2] (Ac-[hLeu]YCVGK[4Pal]DVYCWFT[dK](DOTA)-NH2; disulfide 3-11)
10 to 100	CCCC[C@H](NC(C)=O)C(=O)N[C@@H](Cc1ccc(O)cc1)C(=O)N[C@H]1CSSC[C@@H](C(=O)N[C@@H](Cc2c[nH]c3ccccc23)C(=O)N[C@@H](Cc2ccccc2)C(=O)N[C@H](C(=O)N[C@H](CCCCNC(=O)CN2CCN(CC(=O)O)CCN(CC(=O)O)CCN(CC(=O)O)CC2)C(N)=O)[C@@H](C)O)NC(=O)[C@H](Cc2ccc(O)cc2)NC(=O)[C@H](CC)NC(=O)[C@H](CC(=O)O)NC(=O)[C@H](Cc2ccc(O)cc2)NC(=O)[C@H](CCCCN)NC(=O)CNC(=O)[C@H](C(C)C)NC1=O [compound 96, Ac-Nle-Y-C-V-G-K-Y-D-Abu-Y-C-W-F-Thr-dLys(DOTA)-CONH2] (Ac-[Nle]YCVGKYD[Abu]YCWFT[dK](DOTA)-NH2; disulfide 3-11)
10 to 100	CCCC[C@H](NC(C)=O)C(=O)N[C@@H](Cc1ccc(O)cc1)C(=O)N[C@H]1CSSC[C@@H](C(=O)N[C@@H](Cc2c[nH]c3ccccc23)C(=O)N[C@@H](Cc2ccccc2)C(N)=O)NC(=O)[C@H](Cc2ccc(O)cc2)NC(=O)[C@H](C(C)C)NC(=O)[C@H](CC(=O)O)NC(=O)[C@H](Cc2ccc(O)cc2)NC(=O)[C@H](CCCCN)NC(=O)CN(C)C(=O)[C@H](C(C)C)NC1=O [compound 26, Ac-Nle-Y-C-V-Sar-K-Y-D-V-Y-C-W-F-CONH2] (Ac-[Nle]YCV[Sar]KYDVYCWF-NH2; disulfide 3-11)
10 to 100	CCCC[C@H](NC(C)=O)C(=O)N[C@@H](Cc1ccc(O)cc1)C(=O)N[C@H]1CSSC[C@@H](C(=O)N[C@@H](Cc2c[nH]c3ccccc23)C(=O)N[C@@H](Cc2ccccc2)C(=O)N[C@@H](CCN)C(=O)N[C@H](CCCCNC(=O)CN2CCN(CC(=O)O)CCN(CC(=O)O)CCN(CC(=O)O)CC2)C(N)=O)NC(=O)[C@H](Cc2ccc(O)cc2)NC(=O)[C@H](C(C)C)NC(=O)[C@H](CC(=O)O)NC(=O)[C@H](Cc2ccc(O)cc2)NC(=O)[C@H](CCCCN)NC(=O)CNC(=O)[C@H](C(C)C)NC1=O [compound 131, Ac-Nle-Y-C-V-G-K-Y-D-V-Y-C-W-F-Dab-dLys(DOTA)-CONH2] (Ac-[Nle]YCVGKYDVYCWF[Dab][dK](DOTA)-NH2; disulfide 3-11)
1 to 10	CC(=O)N[C@@H](CCC(C)C)C(=O)N[C@@H](Cc1ccc(O)cc1)C(=O)N[C@H]1CSSC[C@@H](C(=O)N[C@@H](Cc2c[nH]c3ccc(F)cc23)C(=O)N[C@@H](Cc2ccccc2)C(=O)N[C@H](C(N)=O)[C@@H](C)O)NC(=O)[C@H](Cc2ccc(OCCNC(=O)CN3CCN(CC(=O)O)CCN(CC(=O)O)CCN(CC(=O)O)CC3)cc2)NC(=O)[C@H](C(C)C)NC(=O)[C@H](CC(=O)O)NC(=O)[C@H](Cc2ccc(O)cc2)NC(=O)[C@H](CCCCN)NC(=O)CNC(=O)[C@H](C(C)C)NC1=O [compound 191, Ac-hLeu-Y-C-V-G-K-Y-D-V-AEF(DOTA)-C-5FW-F-Thr-CONH2] (Ac-[hLeu]YCVGKYDV[AEF](DOTA)C[Trp(5-F)]FT-NH2; disulfide 3-11)
< 1	CC(=O)N[C@@H](CCC(C)C)C(=O)N[C@@H](Cc1ccc(O)cc1)C(=O)N[C@H]1CSSC[C@@H](C(=O)N[C@@H](Cc2c[nH]c3ccc(F)cc23)C(=O)N[C@@H](Cc2ccccc2F)C(=O)N[C@H](C(=O)N[C@H](CCCCNC(=O)CN2CCN(CC(=O)O)CCN(CC(=O)O)CCN(CC(=O)O)CC2)C(N)=O)[C@@H](C)O)NC(=O)[C@H](Cc2ccc(O)cc2)NC(=O)[C@H](C(C)C)NC(=O)[C@H](CC(=O)O)NC(=O)[C@H](Cc2ccc(O)cc2)NC(=O)[C@H](CCCCN)NC(=O)CNC(=O)[C@H](C(C)C)NC1=O [compound 164, Ac-hLeu-Y-C-V-G-K-Y-D-V-Y-C-5FW-2FPhe-Thr-dLys(DOTA)-CONH2] (Ac-[hLeu]YCVGKYDVYC[Trp(5-F)][Phe(2-F)]T[dK](DOTA)-NH2; disulfide 3-11)

Same assay, conditions: SPR KD—37° C., 4Ig B7-H3; 37° C. flow cell temperature

Kd [nM]	SMILES
< 1	CC(=O)N[C@@H](CCC(C)C)C(=O)N[C@@H](Cc1ccc(O)cc1)C(=O)N[C@H]1CSSC[C@@H](C(=O)N[C@@H](Cc2c[nH]c3ccc(F)cc23)C(=O)N[C@@H](Cc2ccccc2)C(=O)N[C@H](C(N)=O)C(C)(C)O)NC(=O)[C@H](Cc2ccc(O)cc2)NC(=O)[C@H](C(C)C)NC(=O)[C@H](CC(=O)O)NC(=O)[C@H](CC2CCN(C(=O)CCOCCOCCOCCOCCNC(=O)CN3CCN(CC(=O)O)CCN(CC(=O)O)CCN(CC(=O)O)CC3)CC2)NC(=O)[C@H](CC2CCNCC2)NC(=O)CNC(=O)[C@H](C(C)(C)C)NC1=O [compound 445, Ac-hLeu-Y-C-Tbg-G-PipAla-Pip(PEG4-DOTA)Ala-D-V-Y-C-5FW-F-hydroxyVal-CONH2] (Ac-[hLeu]YC[Tle]G[Ala(piperidin-4-yl)][Ala(piperidin-4-yl)]([PEG4-DOTA])DVYC[Trp(5-F)]F[Val(3-OH)]-NH2; disulfide 3-11)
< 1	CC(C)CC[C@H](NC(=O)[C@@H]1CCC(=O)N1)C(=O)N[C@@H](Cc1ccc(O)cc1)C(=O)N[C@H]1CSSC[C@@H](C(=O)N[C@@H](Cc2c[nH]c3ccc(F)cc23)C(=O)N[C@H](C(=O)N[C@H](C(=O)N[C@H](CCCCNC(=O)CN2CCN(CC(=O)O)CCN(CC(=O)O)CCN(CC(=O)O)CC2)C(=O)O)C(C)(C)O)[C@@H](C)c2ccccc2)NC(=O)[C@H](Cc2ccc(NC(N)=O)cc2)NC(=O)[C@H](C(C)C)NC(=O)[C@H](CC(=O)O)NC(=O)[C@H](CC2CCOCC2)NC(=O)[C@H](CC2CCNCC2)NC(=O)CNC(=O)[C@H](C(C)(C)C)NC1=O [compound 504, Pyroglutamate-hLeu-Y-C-Tbg-G-PipAla-ThpA-D-V-Aph(Cbm)-C-5FW-[(2S, 3S)beta-Me-Phe]-hydroxyVal-dLys(DOTA)-COOH] ([pGlu][hLeu]YC[Tle]G[Ala(piperidin-4-yl)][Ala(4-THP)]DV[Phe(4-NHCONH2)]C[Trp(5-F)][X1][Val(3-OH)][dK](DOTA)-OH; disulfide 4-12)
10 to 100	CCCC[C@H](NC(C)=O)C(=O)N[C@@H](Cc1ccc(O)cc1)C(=O)N[C@H]1CSSC[C@@H](C(=O)N[C@@H](Cc2c[nH]c3ccccc23)C(=O)N[C@@H](Cc2ccccc2)C(N)=O)NC(=O)[C@H](Cc2ccc(O)cc2)NC(=O)[C@H](C(C)C)NC(=O)[C@H](CC(=O)O)NC(=O)[C@H](Cc2ccc(O)cc2)NC(=O)[C@H](CCCCN)NC(=O)CN(C)C(=O)[C@H](C(C)C)NC1=O [compound 26, Ac-Nle-Y-C-V-Sar-K-Y-D-V-Y-C-W-F-CONH2] (Ac-[Nle]YCV[Sar]KYDVYCWF-NH2; disulfide 3-11)
< 1	CC(=O)N[C@@H](CCC(C)C)C(=O)N[C@@H](Cc1ccc(O)cc1)C(=O)N[C@H]1CSSC[C@@H](C(=O)N[C@@H](Cc2c[nH]c3ccc(F)cc23)C(=O)N[C@@H](Cc2ccccc2)C(=O)N[C@H](C(=O)N[C@H](CCCCNC(=O)CC[C@H](NC(=O)CN2CCN(CC(=O)O)CCN(CC(=O)O)CCN(CC(=O)O)CC2)C(=O)O)C(N)=O)C(C)(C)O)NC(=O)[C@H](Cc2ccc(O)cc2)NC(=O)[C@H](C(C)C)NC(=O)[C@H](CC(=O)O)NC(=O)[C@H](CC2CCOCC2)NC(=O)[C@H](CC2CCNCC2)NC(=O)CNC(=O)[C@H](C(C)(C)C)NC1=O [compound 452, Ac-hLeu-Y-C-Tbg-G-PipAla-ThpA-D-V-Y-C-5FW-F-hydroxyVal-dLys(gE-DOTA)-CONH2] (Ac-[hLeu]YC[Tle]G[Ala(piperidin-4-yl)][Ala(4-THP)]DVYC[Trp(5-F)]F[Val(3-OH)][dK]([γGlu-DOTA])-NH2; disulfide 3-11)
1 to 10	CC(C)CC[C@H](NC(=O)CCOCCOCCOCCOCCOCCOCCOCCOCCNC(=O)CN1CCN(CC(=O)O)CCN(CC(=O)O)CCN(CC(=O)O)CC1)C(=O)N[C@@H](Cc1ccc(O)cc1)C(=O)N[C@H]1CSSC[C@@H](C(=O)N[C@@H](Cc2c[nH]c3ccc(F)cc23)C(=O)N[C@@H](Cc2ccccc2)C(=O)N[C@H](C(N)=O)C(C)(C)O)NC(=O)[C@H](Cc2ccc(O)cc2)NC(=O)[C@H](C(C)C)NC(=O)[C@H](CC(=O)O)NC(=O)[C@H](CC2CCOCC2)NC(=O)[C@H](CCCCN)NC(=O)CNC(=O)[C@H](C(C)(C)C)NC1=O [Cpd #391, DOTA-PEG8-hLeu-Y-C-Tbg-G-K-ThpA-D-V-Y-C-5FW-F-hydroxyVal-CONH2] ({DOTA-PEG8}-[hLeu]YC[Tle]GK[Ala(4-THP)]DVYC[Trp(5-F)]F[Val(3-OH)]-NH2; disulfide 3-11)
< 1	CC(=O)N[C@@H](CCC(C)C)C(=O)N[C@@H](Cc1ccc(O)cc1)C(=O)N[C@H]1CSSC[C@@H](C(=O)N[C@@H](Cc2c[nH]c3ccc(F)cc23)C(=O)N[C@H](C(=O)N[C@H](C(=O)N[C@H](CCCCNC(=O)[C@H](CCC(=O)O)NC(=O)CN2CCN(CC(=O)O)CCN(CC(=O)O)CCN(CC(=O)O)CC2)C(=O)O)C(C)(C)O)[C@@H](C)c2ccccc2)NC(=O)[C@H](Cc2ccc(O)cc2)NC(=O)[C@H](C(C)C)NC(=O)[C@H](CC(=O)O)NC(=O)[C@H](CC2CCOCC2)NC(=O)[C@H](CC2CCNCC2)NC(=O)CNC(=O)[C@H](C(C)(C)C)NC1=O [compound 498, Ac-hLeu-Y-C-Tbg-G-PipAla-ThpA-D-V-Y-C-5FW-[(2S, 3S)beta-Me-Phe]-hydroxyVal-dLys(Glu-DOTA)-COOH] (Ac-[hLeu]YC[Tle]G[Ala(piperidin-4-yl)][Ala(4-THP)]DVYC[Trp(5-F)][X1][Val(3-OH)][dK]([Glu-DOTA])-OH; disulfide 3-11)
